Assays:
[1] = system: human aortic smooth muscle cells (AoSMC); experiment: Smooth muscle cell proliferation inhibition (3H-thymidine incorporation); assay type: cell-based; conditions: 5% serum-stimulated AoSMC, 20 hr incubation, read-out: SMC Proliferation Inhibition (IC50)
Method: Cultured human aortic smooth muscle cells (AoSMC) were obtained from Clonetics, Inc. and were used below passage 10. Cells were seeded in 24-well plates. When cells were 80% confluent, they were made quiescent by adding media containing 0.2% serum (as compared to 5% serum in normal culture media) for 48 hours. The cells were then stimulated by 5% serum in the presence or absence of compounds dissolved in DMSO. To establish a dose curve and IC50 for each compound, multiple concentrations (20,15,10,5 μM) were used. Rapamycin (at 1 and 0.1 μM) was used as a positive control for the assay. After a 20 hr incubation with or without test compounds, ^3H-thymidine (0.5 μCi/per well) was added to the cells for 4 hours of labeling. Washed cells were then lysed in NaOH and the amount of^3H-thymidine incorporation was determined by a scintillation counter.

[2] = system: ACI-to-Lewis rat aortic allograft; experiment: Rat aortic allograft model (graft arteriosclerosis); assay type: in vivo; conditions: for percent inhibition of IM ratio / percent inhibition of the % LN (luminal narrowing): day 90, vs vehicle control
Method: Compound A was evaluated for graft arteriosclerosis resulting from aortic heterotropic transplantation. This is a model of graft arteriopathy which is the major obstacle to long term success of solid organ transplantation.
Donor descending aortas from ACI rats were heterotypically transplanted into Lewis rat abdomens in end-to-end fashion with minimal ischemic time. 55 rats were assigned to five groups as follows:
(§1) Compound A was administered subcutaneously to recipient animals three days prior to the surgery and once daily for 90 days thereafter. […] Thereafter, the dose was reduced to 30 mg/kg/d for 6 days and then further reduced to 5 mg/kg/d for the remainder of the study.
On day 90, the allograft segment was removed, fixed in 10% buffered formal in and paraffin embedded. Sections were stained with von Geisson's elastic stain, and intima-to-media area (IM) ratio and percent luminal narrowing (% LN) were assessed by digital morphometry (See FIGS. 1 and 2). Blood was collected at regular intervals throughout the study and plasma evaluated for compound levels (See FIG. 3).

[3] = Tolerability in rat aortic allograft study; assay type: in vivo
Method: as §1
The group receiving the 40/30/5 mg/kg/d dose of Compound A evidenced the highest degree of inhibition despite the fact that it received only a 40 mg/kg/d dose for 13 days prior to dosing down. […] After 90 days of dosing, the trough plasma levels were 10, 18 and 28 uM for the 10,20 and 40/30/5 mg/kg/d doses, respectively.

[4] = background statement; cited from earlier work
[5] = 20 mg and 40/30/5 mg/kg/d doses

CC(C)(Sc1cc(C(C)(C)C)c(O)c(C(C)(C)C)c1)Sc1cc(C(C)(C)C)c(OCCCC(=O)O)c(C(C)(C)C)c1 [Compound A, 4-[4-[[1-[[3,5-bis(1,1-dimethylethyl)-4-hydroxyphenyl]thio]-1-methylethyl]thio]-2,6-bis(1,1-dimethylethyl)phenoxy]butyric acid]
IC50 [1]: 5.5 µM
percent inhibition of IM ratio ([2]; 10 mg/kg/d subcutaneous): 11%
percent inhibition of the % LN (luminal narrowing) ([2]; 10 mg/kg/d subcutaneous): 22%
% LN compared to the vehicle group [2, 5]: significantly lower
IM ratio compared to the vehicle group [2, 5]: significantly lower
percent inhibition of IM ratio ([2]; 20 mg/kg/d subcutaneous): 28%
percent inhibition of the % LN (luminal narrowing) ([2]; 20 mg/kg/d subcutaneous): 33%
inhibition of aortic neointimal growth ([2]; 10, 20, 40/30/5 mg/kg/d): dose-dependent inhibition
percent inhibition of IM ratio ([2]; 40/30/5 mg/kg/d subcutaneous): 49%
percent inhibition of the % LN (luminal narrowing) ([2]; 40/30/5 mg/kg/d subcutaneous): 52%
toxic side effects ([3]; 20 mg/kg/d): without grossly discemable toxic side effects
body weight change ([3]; 40 mg/kg/d group, until dose dropped to 5 mg/kg/d): initially lost weight
adverse findings leading to dose reduction ([3]; 40 mg/kg/d subcutaneous, 13 days): failure to gain weight and skin irritation
tolerability of treatment ([3]; 10 and 20 mg/kg/d subcutaneous): well tolerated

CC(C)(Sc1cc(C(C)(C)C)c(O)c(C(C)(C)C)c1)Sc1cc(C(C)(C)C)c(OC(=O)CN)c(C(C)(C)C)c1 [Compound I]
IC50 [1]: 8 µM

CCOC(=O)CC[C@H](NCC(O)COc1c(C(C)(C)C)cc(SC(C)(C)Sc2cc(C(C)(C)C)c(O)c(C(C)(C)C)c2)cc1C(C)(C)C)C(=O)OCC (some centres unmarked) [E]
IC50 [1]: 3.7 µM

C=CC[C@@H]1/C=C(\C)C[C@H](C)C[C@H](OC)[C@H]2O[C@@](O)(C(=O)C(=O)N3CCCC[C@H]3C(=O)O[C@H](/C(C)=C/[C@@H]3CC[C@@H](O)[C@H](OC)C3)[C@H](C)[C@@H](O)CC1=O)[C@H](C)C[C@@H]2OC [FK506, tacrolimus]
immunosuppressive activity relative to cyclosporin [4]: 10-100 times
